From patent US20070178537A1, “Assays for detection of bioactive compounds that interact with heat shock protein 90” (Sloan-Kettering Institute for Cancer Research, priority 2003, published 2007)
“And” between values parts separate entries of the source, which are not always exact repeats. Identical values can stand only once. Like-named read-outs stand apart in the source and are kept apart here. Each block holds one molecule with its values, some of them ahead of it.

Assays:
[1] = system: Her2 in SKBr3 cells; assay: Her2-blot (whole-cell immunoassay of Her2 degradation); type: cell-based, human
Protocol: The human cancer cell lines SKBr3 and A431 were obtained from the American Type Culture Collection (Manassas, Va.) and maintained in 1:1 mixture of DME:F12 supplemented with 2 mM glutamine, 50 units/mL penicillin, 50 units/mL streptomycin and 5% heat inactivated fetal bovine serum (FBS) (Gemini Bioproducts) and incubated at 37° C. in 5% CO2. Stock culture was grown in T-175 flasks containing 30 mL of DME (HG, F-12, non-essential amino acids, and penicillin and streptomycin), with glutamine, and 10% FBS. Cells were dissociated with 0.05% trypsin and 0.02% EDTA in phosphate buffer saline (PBS) without calcium and magnesium. Experimental cultures of SKBr3 were plated in black, clear-bottom microtiter plates (Corning # 3603) (3,000 cells per well) in growth medium ([…]), and allowed to attach for at least 48 h at 37° C. and 5% CO2. Some wells were left without cells to serve as the blank. Growth medium (100 μL) with drug or vehicle (DMSO) was carefully added to the wells and the microtiter plates were placed at 37° C. and 5% CO2. […] Following incubation (6 h or 24 h), wells were washed twice with ice-cold tris buffer saline (TBS) containing 0.1% Tween20 (TBST) (200 μL). A house vacuum source attached to an 8-channel aspirator was used to remove the liquid from the microplates. Further, methanol (100 μL at −20° C.) was added to each well and the plate was left at 4° C. for 10 min. Methanol was removed by washing with TBST (2×200 μL). The plate was further incubated at RT for 1 h with SuperBlock® (Pierce # 37535) (200 μL) and overnight at 4° C. with the anti-Her-2 antibody (Santa Cruz Biotechnology # SC-284) ([…], 1:200 in SuperBlock®). Each well was washed with TBST (2×200 μL) and incubated at RT for 2 h with an anti-rabbit HRP-linked antibody (Sigma # A0545) (100 μL, 1:1000 in SuperBlock®). […] The plate was read 5 min later in an Analyst AD plate reader (Molecular Devices). […] Readings from wells containing only control IgG and the corresponding HRP-linked secondary antibody were set as background and deducted from all measured values. […]

[2] = molecular target: Hsp90 beta (Homo sapiens, UniProt P08238); assay: Fluorescence polarization competitive displacement of GM-BODIPY, Hsp90 beta; type: binding; settings: 30 nM Hsp90 beta, 5 nM GM BODIPY, 7 h
Excerpt: Specific ligand binding was plotted against the log10 inhibitor concentration and EC50 values calculated using a non linear least square curve fitting program in Prism 4.0.

[3] = molecular target: T1, Hsp90 alpha (Homo sapiens, UniProt P07900); assay: Fluorescence polarization competitive displacement of GM-BODIPY from Hsp90; type: binding; settings: ratio of EC50 values
T1 construct: purchased Stressgen SPP776
Excerpt: The method comprises the steps of: • (a) combining the candidate molecule with Hsp90 in the presence of a fluorescently-labeled molecule known to bind to Hsp90; • (b) exciting the fluorescent label using polarized light to produce a fluorescent emission; • (c) observing the degree of polarization of the fluorescent emission; and • (d) comparing the degree of polarization determined in step (c) to a standard value determined for the fluorescently labeled molecule when it is bound to Hsp90. When the fluorescently-labeled molecule is bound to the Hsp90, the emission is substantially polarized. On the other hand, when the fluorescently-labeled molecule has been wholly or partially displaced by candidate molecule, the extent to which the emission is polarized decreases as a result of the rotational freedom of the unbound fluorescently labeled species.
Maximum concentration of used DMSO was 0.25% (v/v). The plate was left on a shaker at 4° C. for 5 h and the FP values in mP were recorded.
Ad-But was again used as a control.
A mixture of 30 nM Hsp90 alpha, 30 nM Hsp90 beta or 200 nM Grp94-His, respectively with 5 nM GM BODIPY was added and the plate incubated at 4EC for 7 h. Specific ligand binding was plotted against the log10 inhibitor concentration and EC50 values calculated using a non linear least square curve fitting program in Prism 4.0.

[4] = system: tumor hsp90 versus normal tissue Hsp90; assay: Fluorescence polarization assay with tumor cell and normal tissue lysates; type: binding; settings: FIG. 11 and FIG. 22C
Protocol: For use in the assay of the invention, cell lysates are made using the following protocol • collect cells • adherent cells: trypsinize (or scrape), harvest cells in 15 ml conical tubes and centrifuge at 1,600 RPM for 5 minutes at 2 to 8 C • (use confluent T-175 flask to obtain 0.5 ml of lysate) • floating cells: pellet cells by centrifugation 1600 rpm for 5 minutes at 2 to 8 C • wash 2× with 5 ml of PBS buffer • resuspend the pellet in 1 ml of PBS buffer and transfer cells to an eppendorf tube • centrifuge, aspirate supernatant, and freeze the pellet O/N at −70° C. • resuspend in lysis buffer B (Felts buffer) (1×10^6 cells per 100 l of buffer B) • incubate on the rotor for 2 hours at 2 to 8° C. • centrifuge the samples at 13,200 RPM for 30 min at 2 to 8° C. • transfer the supernatant to a fresh tube • quantitate protein concentration with the Pierce BCA assay • add 0.5 uL of 1M DTT/mL lysate • store samples at −70 C; before conducting an experiment thaw samples on ice and keep samples on ice throughout the course of experiment.
Cellular lysates were prepared in this manner from normal brain tissue, CML cell line K562 and breast cancer cell line SKBr3. For constructing a saturation curve, 5 nM GM BODIPY was added to the lysate, and the fluorescence polarization assay of the invention was performed. […]
The assay is stable and results in reproducible data (6-24 h readings presented). […]

[5] = Homo sapiens, SK-BR-3, Her2-blot, read-out: IC50 for Her2 degradation

Chain of Hsp90 beta (P08238 whole entry): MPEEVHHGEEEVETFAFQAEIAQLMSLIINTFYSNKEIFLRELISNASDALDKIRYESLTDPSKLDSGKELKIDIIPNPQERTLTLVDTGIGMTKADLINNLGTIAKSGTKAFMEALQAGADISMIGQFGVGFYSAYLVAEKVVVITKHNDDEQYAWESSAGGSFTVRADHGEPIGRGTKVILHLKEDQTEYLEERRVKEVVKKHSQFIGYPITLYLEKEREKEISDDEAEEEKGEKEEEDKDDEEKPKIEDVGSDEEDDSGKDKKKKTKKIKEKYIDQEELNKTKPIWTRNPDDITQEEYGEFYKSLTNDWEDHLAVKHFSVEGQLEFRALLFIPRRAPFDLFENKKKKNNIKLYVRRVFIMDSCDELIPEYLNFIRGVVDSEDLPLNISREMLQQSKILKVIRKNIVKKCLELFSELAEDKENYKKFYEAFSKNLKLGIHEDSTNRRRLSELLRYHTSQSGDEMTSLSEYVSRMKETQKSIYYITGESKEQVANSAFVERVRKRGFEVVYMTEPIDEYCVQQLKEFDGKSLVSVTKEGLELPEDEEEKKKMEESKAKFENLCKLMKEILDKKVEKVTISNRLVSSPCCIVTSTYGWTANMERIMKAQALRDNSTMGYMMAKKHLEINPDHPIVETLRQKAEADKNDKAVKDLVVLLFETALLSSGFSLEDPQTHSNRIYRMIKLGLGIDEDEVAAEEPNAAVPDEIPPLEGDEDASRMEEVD

times weaker Hsp90 inhibitor than 17AAG [3]: 30
SMILES: CCCCn1c(Cc2cc(OC)c(OC)c(OC)c2)nc2c(N)ncnc21 [PU3]

IC50 ([1]; several plates at different time periods, read-out: IC50s in separate readings of the Her2-blot): 4 µM and 4.18 µM and 4.54 µM
SMILES: C#CCCCn1c(Cc2cc(OC)c(OC)c(OC)c2Cl)nc2c(N)nc(F)nc21 [PU24FCl]
Binding affinity for tumor versus normal tissue Hsp90 [4]: difference in binding affinity

Further lines, the molecule ahead of its results:

SMILES: COC1=C2C[C@@H](C)C[C@H](OC)[C@H](O)[C@@H](C)/C=C(\C)[C@H](OC(N)=O)[C@@H](OC)/C=C\C=C(/C)C(=O)NC(=CC1=O)C2=O [GM, geldanamycin]
IC50 [1, 5]: 0.017 µM

SMILES: CCNC(=O)[C@H]1O[C@@H](n2cnc3c(N)ncnc32)[C@H](O)[C@@H]1O [NECA]
Inhibition of cytosolic Hsp90 b (FIG. 13A) [2]: does not inhibit

SMILES: C[C@@H]1C[C@H]2O[C@@H]2/C=C\C=C\C(=O)Cc2c(Cl)c(O)cc(O)c2C(=O)O1 [RD, radicicol]
IC50 [1, 5]: 0.028 µM
